Reference: paper PMC4366261, “Characterization of the Intestinal Absorption of Seven Flavonoids from the Flowers of Trollius chinensis Using the Caco-2 Cell Monolayer Model” (PLoS ONE, 2015)
Converted amounts (≈) assume the structure as drawn.

Columns and labels:
[1] = tested on: Caco-2 cells; assay: MTT assay, survival rate of Caco-2 cells; format: cell-based, human; conditions: 4 h
Description: The human colon adenocarcinoma cell line Caco-2 (No. 3111C0001CCC000100, passage 32) was obtained from the Cell Resource Center, Peking Union Medical College (the headquarters of National Infrastructure of Cell Line Resource, NSTI) on May 3rd, 2013. The cell line was checked free of mycoplasma contamination by PCR and culture, its species origin was confirmed with PCR, and its identity was authenticated with STR profiling (FBI, CODIS). All results of the above tests can be viewed on the website (http://cellresource.cn). The cells were cultured in 25 cm^2 flasks in DMEM medium supplemented with 10% (v/v) FBS, 1% (v/v) NEAA, and 1% (v/v) penicillin-streptomycin, in an atmosphere of 5% CO2 at 37°C and constant moisture. The culture medium was replaced every 2 to 3 days, and the cells were split 1:2 or 1:3 as 80% confluence was obtained.
Caco-2 cells at logarithmic growth phase were seeded into 96-well plates and incubated at 37°C in an atmosphere of 5% CO2 and constant moisture in the incubator. After the cells reached confluence, they were cultured in quadruplicate with 100 μL of HBSS solution (negative control) and compound-containing HBSS solution (seven flavonoids or paclitaxel (positive control) at the concentrations of 25, 50, and 100 μmol/L, respectively) for 4 h. Then, HBSS solution was replaced by 100 μL of MTT solution (0.5 mg/mL), and the supernatant was discarded after 4 h of incubation at 37°C. The cells were shaken with 150 μL of DMSO for 10 min, and the absorbance was read on the microplate reader at 570 nm. The survival rate %=A¯/A0¯×100 , wherein A¯ was the average absorbance value of treatment or positive control group, and A0¯ was the average absorbance value of negative control group.

[2] = Transport experiment across Caco-2 cell monolayer (Papp); format: in vitro ADME, human; conditions: human
Experimental: (§1) For cells differentiation to form a confluent monolayer, Caco-2 cells were seeded into the inserts of the 12-well Transwell plates at the density of 1.0×10^5 cells/cm^2. The culture medium was replaced on every other day in the first week, and then at daily intervals for the apical (AP) side and 2 days intervals for the basal (BL) side until the transport experiment was performed 21 days after seeding. The AP and BL sides contained 0.5 and 1.5 mL of culture medium, respectively. […] The cell inserts were considered as qualified only if the resistance reached above 600 Ω cm^2.
(§2) On day 21, the transport experiment was initiated by removal of the culture medium from AP and BL sides. The Caco-2 monolayers were rinsed twice with pre-warmed Hanks balanced salt solution (HBSS) and were incubated with the same solution at 37°C for 30 min. The seven individual test compounds and an equimolar mixture of them were pre-dissolved in DMSO, and then diluted to 25, 50, and 100 μmol/L with an appropriate volume of HBSS to allow the final concentration of DMSO to be less than 1%. The test compounds were added to the AP (0.5 mL) or BL side (1.5 mL), while the receiving chamber contained the corresponding volume of HBSS. Incubation was performed at 37°C for 180 min, with shaking at 50 rpm. At 30, 60, 90, 120, 150, and 180 min, each 0.2 mL of the solution from BL or AP side was collected, and replaced with an equal volume of HBSS. The samples were frozen immediately and stored below-20°C before analysis.
(§3) The apparent permeability coefficients (Papp) were determined in this study by HPLC quantification of the compounds in the receiver chamber after transport across the Caco-2 monolayer. The calculation was carried out in accordance with the formula Papp = (dQ/dt)×(1/A)×(1/C0), wherein dQ/dt was the rate of appearance of the test compound in the receiver compartment (μmol/s); C0 was the initial concentration of test compound in the donor compartment (μmol/mL); and A was the surface area of the Caco-2 monolayer (cm^2). The percentage transported (%) was calculated using the formula % transported = QB/(CS×VD)×100, wherein QB was the quantity of compound in the receiver compartment (μmol); CS was the concentration of test compound in the donor compartment (μmol/mL); VD was the liquid volume of the donor compartment (mL). The transport rate (μmol/h/cm^2) was calculated using the formula transport rate = QB/(t×A), wherein QB was the quantity of compound in the receiver compartment (μmol); t was the incubation time (h); A was the surface area of the Caco-2 monolayer (cm^2).

[3] = tested on: Caco-2 cell monolayer; assay: as above; format: in vitro ADME, human; conditions: for Absorption mechanism: from P ratio, time course and concentration course; for P ratio Papp AP→BL/Papp BL→AP: 50 μmol/L, 90 min
Experimental: as §1, §2, §3

[4] = Stability of sample solutions at room temperature by HPLC; format: physicochemical; conditions: sample solution at room temperature, HPLC at 0, 1, 2, 4, 6, 12 and 24 h
Experimental: The intra-day precision was determined by investigating the analytes in sextuplicates during a single day, and the inter-day precision was determined by conducting the intra-day experiment on two consecutive days. […] Each one sample solution of the seven flavonoids was kept at room temperature, and then their stabilities were determined by injecting them into apparatus at 0, 1, 2, 4, 6, 12, and 24 h.

[5] = target: T1, P-glycoprotein (P-gp) (Homo sapiens, UniProt P08183); assay: Transporter inhibition experiment with verapamil hydrochloride (P-gp) in Caco-2 monolayer; format: in vitro ADME; conditions: 50 μmol/L compound, 100 μmol/L verapamil hydrochloride, AP to BL; for Effect of verapamil hydrochloride on the transport: 180 min
T1 construct: endogenous in cells; host or cells: Caco-2 cells
T1 sequence (P08183 whole entry): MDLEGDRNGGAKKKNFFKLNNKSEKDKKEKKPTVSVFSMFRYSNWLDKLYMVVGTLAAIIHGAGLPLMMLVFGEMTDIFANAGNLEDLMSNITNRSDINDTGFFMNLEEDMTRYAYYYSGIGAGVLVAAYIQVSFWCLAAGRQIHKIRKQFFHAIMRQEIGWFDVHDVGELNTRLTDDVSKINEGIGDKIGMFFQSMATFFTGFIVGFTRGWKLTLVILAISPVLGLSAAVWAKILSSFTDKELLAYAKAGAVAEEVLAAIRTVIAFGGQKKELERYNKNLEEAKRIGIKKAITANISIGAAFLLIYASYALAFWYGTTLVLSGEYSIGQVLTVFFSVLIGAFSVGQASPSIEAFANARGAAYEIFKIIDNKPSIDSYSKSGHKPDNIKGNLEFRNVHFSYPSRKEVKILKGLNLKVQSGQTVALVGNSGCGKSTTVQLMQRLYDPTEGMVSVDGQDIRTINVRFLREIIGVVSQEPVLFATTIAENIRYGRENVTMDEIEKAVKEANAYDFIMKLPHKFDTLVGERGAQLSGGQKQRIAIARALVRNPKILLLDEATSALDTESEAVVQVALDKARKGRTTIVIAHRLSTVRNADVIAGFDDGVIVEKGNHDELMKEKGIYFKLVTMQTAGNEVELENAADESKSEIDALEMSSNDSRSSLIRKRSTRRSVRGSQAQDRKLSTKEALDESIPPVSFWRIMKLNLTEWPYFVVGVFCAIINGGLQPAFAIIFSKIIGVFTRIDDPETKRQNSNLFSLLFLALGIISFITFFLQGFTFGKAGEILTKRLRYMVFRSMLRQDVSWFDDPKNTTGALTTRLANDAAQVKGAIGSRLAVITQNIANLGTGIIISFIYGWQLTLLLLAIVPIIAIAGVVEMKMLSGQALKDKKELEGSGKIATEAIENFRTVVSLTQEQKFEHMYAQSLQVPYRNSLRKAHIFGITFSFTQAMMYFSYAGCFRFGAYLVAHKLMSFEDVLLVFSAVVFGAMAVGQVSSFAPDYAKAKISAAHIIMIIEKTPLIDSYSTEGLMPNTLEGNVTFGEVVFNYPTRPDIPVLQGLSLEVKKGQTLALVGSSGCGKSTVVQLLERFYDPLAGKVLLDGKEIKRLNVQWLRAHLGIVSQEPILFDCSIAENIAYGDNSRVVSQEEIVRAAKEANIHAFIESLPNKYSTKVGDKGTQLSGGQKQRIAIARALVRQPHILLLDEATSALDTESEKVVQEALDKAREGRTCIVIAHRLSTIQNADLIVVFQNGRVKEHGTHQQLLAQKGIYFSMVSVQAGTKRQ
Experimental: On day 21, transport study was initiated by carefully removing the culture medium from both AP and BL sides. The Caco-2 monolayers were rinsed twice with pre-warmed HBSS and were incubated with the same solution at 37°C for 30 min. […] The final concentration of DMSO in these solutions was less than 1%. […] Incubation was performed at 37°C for 180 min, with shaking at 50 rpm. […] The samples were frozen immediately and stored below-20°C before analysis.

[6] = tested on: parainfluenza virus type 3 (Para 3); parameters: method as in PMID 11849843; conditions: cited from earlier work
[7] = tested on: Staphylococcus aureus; parameters: method as in earlier work; conditions: cited from earlier work
[8] = tested on: S. epidermidis; parameters: method as in earlier work; conditions: cited from earlier work
[9] = tested on: murine ear edema model; conditions: cited from earlier work
[10] = Caco-2, in the equimolar mixture of the seven flavonoids
[11] = in the equimolar mixture of the seven flavonoids

Row | Papp A→B at 90 min, 50 μmol/L [2, 10] | Papp B→A at 90 min, 50 μmol/L [2, 10] | Papp A→B at 90 min, 50 μmol/L ([2]; Caco-2, individual compound) | Papp B→A at 90 min, 50 μmol/L ([2]; Caco-2, individual compound) | RSD% values for 24-hour stability [4] | SMILES | Survival rates (%) ([1]; 25 μmol/L) | Survival rates (%) ([1]; 50 μmol/L) | Survival rates (%) ([1]; 100 μmol/L) | Absorption mechanism [3] | P ratio Papp AP→BL/Papp BL→AP [3, 11] | P ratio Papp AP→BL/Papp BL→AP ([3]; individual compound) | other results
1 | 2.69 ± 0.37 ×10⁻⁶ cm/s | 1.59 ± 0.2 ×10⁻⁶ cm/s | 1.07 ± 0.08 ×10⁻⁶ cm/s | 0.94 ± 0.18 ×10⁻⁶ cm/s | 2.82% | COc1cc(O)c2c(=O)cc(-c3ccc(O)cc3)oc2c1[C@@H]1O[C@H](CO)[C@@H](O)[C@H](O)[C@H]1O [Isoswertisin, 5-hydroxy-2-(4-hydroxyphenyl)-7-methoxy-8-((2S,3R,4R,5S,6R)-3,4,5-trihydroxy-6-(hydroxymethyl)tetrahydro-2H-pyran-2-yl)-4H-chromen-4-one] | 110.8±9.9% | 115.3±5.5% | 116.0±8.6% | passive diffusion without participation of transporter | 1.69 | 1.14 | P ratio Papp AP→BL/Papp BL→AP ([3]; individual compound, listed as isoswertisin): ~1
2 | 1.44 ± 0.47 ×10⁻⁶ cm/s | 0.54 ± 0.31 ×10⁻⁶ cm/s | 0.98 ± 0.03 ×10⁻⁶ cm/s | 1.19 ± 0.07 ×10⁻⁶ cm/s | 2.95% | COc1cc(O)c2c(=O)cc(-c3ccc(O)c(O)c3)oc2c1[C@@H]1O[C@H](CO)[C@@H](O)[C@H](O)[C@H]1O [Isoswertiajaponin, 2-(3,4-dihydroxyphenyl)-5-hydroxy-7-methoxy-8-((2S,3R,4R,5S,6R)-3,4,5-trihydroxy-6-(hydroxymethyl)tetrahydro-2H-pyran-2-yl)-4H-chromen-4-one] | 116.7±8.9% | 124.6±5.4% | 109.1±12.6% | passive diffusion without participation of transporter | 2.66 | 0.83 | P ratio Papp AP→BL/Papp BL→AP ([3]; individual compound, listed as isoswertiajaponin): ~1
3 |  |  |  |  |  | CC(=O)O[C@H]1C(=O)[C@@]2(C)[C@H]([C@H](OC(=O)c3ccccc3)[C@]3(O)C[C@H](OC(=O)[C@H](O)[C@@H](NC(=O)c4ccccc4)c4ccccc4)C(C)=C1C3(C)C)[C@]1(OC(C)=O)CO[C@@H]1C[C@@H]2O [Paclitaxel, reference compound] | 67.3±8.2% | 45.5±6.7% | 37.4±3.5% |  |  |  | Survival rates (%) ([1]; 25 μmol/L, listed as paclitaxel): 67.3%; Survival rates (%) ([1]; 50 μmol/L, listed as paclitaxel): 45.5%; Survival rates (%) ([1]; 100 μmol/L, listed as paclitaxel): 37.4%
4 |  |  |  |  |  | CC(C)NCC(O)COc1cccc2ccccc12 (centres unmarked) [propranolol, reference compound] |  |  |  |  |  |  | Papp ([2]; Caco-2, standard compounds, validation of the monolayer model): 14.4 ×10⁻⁶ cm/s
5 | 1.92 ± 0.42 ×10⁻⁶ cm/s | 0.81 ± 0.27 ×10⁻⁶ cm/s | 1.85 ± 0.02 ×10⁻⁶ cm/s | 4.68 ± 0.02 ×10⁻⁶ cm/s | 2.65% | O=c1cc(-c2ccc(O)cc2)oc2c([C@@H]3O[C@H](CO)[C@@H](O)[C@H](O)[C@H]3O[C@@H]3O[C@H](CO)[C@H](O)[C@H](O)[C@H]3O)c(O)cc(O)c12 [2”-O-β-L-galactopyranosylvitexin, 8-((2S,3R,4S,5S,6R)-4,5-dihydroxy-6-(hydroxymethyl)-3-(((2S,3R,4S,5R,6R)-3,4,5-trihydroxy-6-(hydroxymethyl)tetrahydro-2H-pyran-2-yl)oxy)tetrahydro-2H-pyran-2-yl)-5,7-dihydroxy-2-(4-hydroxyphenyl)-4H-chromen-4-one] |  |  |  | transporter mediated efflux in addition to passive diffusion |  |  | 

Row | SMILES | Papp A→B at 90 min, 50 μmol/L [2, 10] | Papp B→A at 90 min, 50 μmol/L [2, 10] | Papp A→B at 90 min, 50 μmol/L ([2]; Caco-2, individual compound) | Papp B→A at 90 min, 50 μmol/L ([2]; Caco-2, individual compound) | RSD% values for 24-hour stability [4] | Survival rates (%) ([1]; 25 μmol/L) | Survival rates (%) ([1]; 50 μmol/L) | Survival rates (%) ([1]; 100 μmol/L) | Absorption mechanism [3] | P ratio Papp AP→BL/Papp BL→AP [3, 11] | P ratio Papp AP→BL/Papp BL→AP ([3]; individual compound) | other results
6 | O=c1cc(-c2ccc(O)cc2)oc2c([C@@H]3O[C@H](CO)[C@@H](O)[C@H](O)[C@H]3O)c(O)cc(O)c12 [Vitexin, 5,7-dihydroxy-2-(4-hydroxyphenyl)-8-((2S,3R,4R,5S,6R)-3,4,5-trihydroxy-6-(hydroxymethyl)tetrahydro-2H-pyran-2-yl)-4H-chromen-4-one] | 1.6 ± 0.18 ×10⁻⁶ cm/s | 1.03 ± 0.28 ×10⁻⁶ cm/s | 2.26 ± 0.37 ×10⁻⁶ cm/s | 3.38 ± 0.54 ×10⁻⁶ cm/s | 2.42% | 104.5±10.5% | 101.3±2.3% | 98.2±8.9% | transporter mediated efflux in addition to passive diffusion | 1.55 | 0.67 | Substrate of P-gp [5]: substrates of P-gp; Effect of verapamil hydrochloride on the transport [5]: increased; IC50 against parainfluenza virus type 3 [6]: 20.8 µg/mL (≈ 48.1 µM); MIC toward S. aureus [7]: 100 µg/mL (≈ 231 µM); MIC toward S. epidermidis [8]: 25 µg/mL (≈ 57.8 µM); Anti-inflammatory effect against murine ear edema [9]: possess anti-inflammatory effects
7 | O=c1cc(-c2ccc(O)c(O)c2)oc2c([C@@H]3O[C@H](CO)[C@@H](O)[C@H](O)[C@H]3O)c(O)cc(O)c12 [Orientin, 2-(3,4-dihydroxyphenyl)-5,7-dihydroxy-8-((2S,3R,4R,5S,6R)-3,4,5-trihydroxy-6-(hydroxymethyl)tetrahydro-2H-pyran-2-yl)-4H-chromen-4-one] | 1.14 ± 0.27 ×10⁻⁶ cm/s | 0.88 ± 0.31 ×10⁻⁶ cm/s | 0.75 ± 0.05 ×10⁻⁶ cm/s | 1.14 ± 0.08 ×10⁻⁶ cm/s | 2.35% | 100.4±1.3% | 114.3±7.5% | 111.5±2.4% | transporter mediated efflux in addition to passive diffusion | 1.29 | 0.66 | Substrate of P-gp [5]: substrates of P-gp; Effect of verapamil hydrochloride on the transport [5]: increased; IC50 against parainfluenza virus type 3 [6]: 11.7 µg/mL (≈ 26.1 µM); MIC toward S. aureus [7]: 25 µg/mL (≈ 55.8 µM); MIC toward S. epidermidis [8]: 25 µg/mL (≈ 55.8 µM); Anti-inflammatory effect against murine ear edema [9]: possess anti-inflammatory effects
